Test results from ChEMBL document CHEMBL1201862, “PubChem BioAssay data set” (2004).
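Results reflect a 48-hour exposure of cells in 96-well plates to compound at five concentrations. GI50 marks 50% less growth.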 Calls of active or inactive are those of the source. No stated cut-off is given here; in the data, active = GI50 up to about 1.1 µM and inactive = higher.

Tests used:
Experiment in all cases: growth of human tumour cells (NCI), 48 h
RPMI-8226 = test system: RPMI-8226
A549 = test system: A549
NCI-H522 = test system: NCI-H522
SF-295 = test system: SF-295
CAKI-1 = test system: CAKI-1
UO-31 = test system: UO-31
SNB-19 = test system: SNB-19
NCI-H460 = test system: NCI-H460
SK-MEL-5 = test system: SK-MEL-5
UACC-62 = test system: UACC-62
HT-29 = test system: HT-29
SK-MEL-28 = test system: SK-MEL-28
OVCAR-4 = test system: OVCAR-4
SNB-75 = test system: SNB-75
RXF 393 = test system: RXF 393
CCRF-CEM = test system: CCRF-CEM
SN12C = test system: SN12C
MOLT-4 = test system: MOLT-4
K562 = test system: K562
UACC-257 = test system: UACC-257

Measured: GI50

Nc1ccn(C2OC(CO)C(O)C2O)c(=O)c1 (stereo not given)
inactive: RPMI-8226 174 µM | A549 179 µM | NCI-H522 > 625 µM | SF-295 > 625 µM | CAKI-1 176 µM | UO-31 360 µM | SNB-19 > 625 µM | NCI-H460 38.7 µM | SK-MEL-5 > 625 µM | UACC-62 337 µM | HT-29 270 µM | SK-MEL-28 > 625 µM | OVCAR-4 285 µM | SNB-75 583 µM | RXF 393 348 µM | CCRF-CEM > 625 µM | SN12C 108 µM

Oc1[nH]c(Nc2cccc(Br)c2)nc2ncnc1-2
inactive: MOLT-4 > 100 µM | RPMI-8226 > 100 µM | A549 > 100 µM | NCI-H522 > 100 µM | SF-295 > 100 µM | CAKI-1 > 100 µM | UO-31 > 100 µM | SNB-19 71.8 µM | K562 26.5 µM | NCI-H460 > 100 µM | SK-MEL-5 > 100 µM | UACC-62 > 100 µM | HT-29 82.6 µM | SK-MEL-28 > 100 µM | OVCAR-4 15.5 µM | SNB-75 57.7 µM | UACC-257 > 100 µM | RXF 393 > 100 µM | CCRF-CEM 54.7 µM

CC1=Nc2nc(Cl)cn2C(=O)C1(Cl)Cl
inactive: MOLT-4 > 10 µM | RPMI-8226 > 10 µM | A549 > 10 µM | NCI-H522 > 10 µM | SF-295 > 10 µM | CAKI-1 > 10 µM | UO-31 > 10 µM | SNB-19 > 10 µM | K562 > 10 µM | NCI-H460 > 10 µM | SK-MEL-5 > 10 µM | UACC-62 > 10 µM | HT-29 > 10 µM | SK-MEL-28 > 10 µM | OVCAR-4 > 10 µM | SNB-75 > 10 µM | RXF 393 > 10 µM | CCRF-CEM > 10 µM | SN12C > 10 µM
